Laboratory results reported in patent US9884063B2, “Amido-substituted azole compounds” (Bayer Pharma Aktiengesellschaft, priority 2014, dated 2018).
Where “and” joins values, the source holds several entries; their conditions need not be identical. Equal values may be shown once. Where a name gives a salt, the structure may show the parent alone.

Molecular target: T1, TNKS2 (Homo sapiens, UniProt Q9H2K2)
T1 sequence (Q9H2K2 1-1166): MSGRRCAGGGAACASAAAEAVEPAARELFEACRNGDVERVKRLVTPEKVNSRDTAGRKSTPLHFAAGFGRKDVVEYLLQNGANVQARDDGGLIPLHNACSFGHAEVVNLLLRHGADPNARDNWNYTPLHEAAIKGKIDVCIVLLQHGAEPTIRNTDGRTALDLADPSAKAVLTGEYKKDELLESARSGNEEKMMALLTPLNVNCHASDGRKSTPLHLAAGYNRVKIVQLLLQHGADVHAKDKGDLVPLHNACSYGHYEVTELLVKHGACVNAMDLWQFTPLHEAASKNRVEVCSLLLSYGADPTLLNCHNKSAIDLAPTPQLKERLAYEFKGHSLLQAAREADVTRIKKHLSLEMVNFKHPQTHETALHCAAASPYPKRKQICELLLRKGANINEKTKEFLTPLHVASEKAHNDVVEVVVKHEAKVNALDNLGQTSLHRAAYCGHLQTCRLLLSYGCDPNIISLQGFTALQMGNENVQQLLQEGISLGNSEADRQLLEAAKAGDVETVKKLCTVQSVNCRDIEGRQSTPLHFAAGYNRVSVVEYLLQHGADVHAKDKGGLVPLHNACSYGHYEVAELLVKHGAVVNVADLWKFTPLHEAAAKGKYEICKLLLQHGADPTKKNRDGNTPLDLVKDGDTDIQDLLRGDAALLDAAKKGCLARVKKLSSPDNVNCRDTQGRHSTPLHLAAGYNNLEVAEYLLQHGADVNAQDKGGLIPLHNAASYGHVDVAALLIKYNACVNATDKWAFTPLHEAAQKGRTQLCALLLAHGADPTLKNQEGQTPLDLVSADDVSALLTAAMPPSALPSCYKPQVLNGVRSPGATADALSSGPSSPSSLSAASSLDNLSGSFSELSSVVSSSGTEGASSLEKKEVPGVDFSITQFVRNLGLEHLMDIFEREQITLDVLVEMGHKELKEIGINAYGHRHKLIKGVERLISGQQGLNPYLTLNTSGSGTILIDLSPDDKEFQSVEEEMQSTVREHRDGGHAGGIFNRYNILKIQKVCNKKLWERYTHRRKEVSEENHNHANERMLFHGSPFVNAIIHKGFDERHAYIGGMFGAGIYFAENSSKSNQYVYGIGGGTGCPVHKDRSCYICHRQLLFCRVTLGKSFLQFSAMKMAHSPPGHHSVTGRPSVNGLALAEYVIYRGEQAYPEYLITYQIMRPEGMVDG
Test: Modified TNKS2 Assay 3 (BPS kit #80578, biotin-NAD+, 96 well)
Assay type: biochemical
Details: human TNKS2, BPS kit #80578, 96 well
Procedure, shortened: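 Commercial kit assay measuring TNKS2-catalysed incorporation of biotin-labelled NAD+ into a protein substrate, detected by streptavidin-HRP chemiluminescence. Run per manufacturer's protocol; IC50 is the concentration halving the normalised signal.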

Row | Compound | IC50
1 | CC(C)(N)CCNC(=O)c1[nH]cnc1C(=O)Nc1ccc(NC(=O)c2ccc(F)cc2Cl)cc1 [Example 286, N^5-(3-amino-3-methylbutyl)-N^4-{4-[(2-chloro-4-fluorobenzoyl)amino]phenyl}-1H-imidazole-4,5-dicarboxamide] | 0.01 µM
2 | O=C(Nc1ccc(NC(=O)c2nc[nH]c2C(=O)NCCN2CCC(F)(F)CC2)cc1)c1ccc(F)cc1Cl [Example 224, N^4-{4-[(2-chloro-4-fluorobenzoyl)amino]phenyl}-N^5-[2-(4,4-difluoropiperidin-1-yl)ethyl]-1H-imidazole-4,5-dicarboxamide] | 0.14 µM
3 | O=C(Nc1ccc(NC(=O)c2nc[nH]c2C(=O)NCCN2CCCC2)cc1)c1ccc(F)cc1Cl [Example 228, N^4-{4-[(2-chloro-4-fluorobenzoyl)amino]phenyl}-N^5-[2-(pyrrolidin-1-yl)ethyl]-1H-imidazole-4,5-dicarboxamide] | 0.004 µM and < 0.0005 µM
4 | COC(=O)c1nc[nH]c1C(=O)Nc1ccc(NC(=O)c2ccc(F)cc2Cl)cc1 [Example 13, Methyl 5-({4-[(2-chloro-4-fluorobenzoyl)amino]phenyl}carbamoyl)-1H-imidazole-4-carboxylate] | 0.02 µM
5 | O=C(Nc1ccc(NC(=O)c2nc[nH]c2C(=O)NCCN2CCC[C@H](O)C2)cc1)c1ccc(F)cc1Cl [Example 271, N^4-{4-[(2-chloro-4-fluorobenzoyl)amino]phenyl}-N^5-{2-[(3S)-3-hydroxypiperidin-1-yl]ethyl}-1H-imidazole-4,5-dicarboxamide] | 0.002 µM
6 | O=C(Nc1ccc(NC(=O)c2nc[nH]c2C(=O)NCCN2CCOCC2)cc1)c1ccc(F)cc1Cl [Example 227, N^4-{4-[(2-chloro-4-fluorobenzoyl)amino]phenyl}-N^5-[2-(morpholin-4-yl)ethyl]-1H-imidazole-4,5-dicarboxamide] | 0.02 µM
7 | O=C(Nc1ccc(NC(=O)c2nc[nH]c2C(=O)NCC2CCCN2)cc1)c1ccc(F)cc1Cl (stereo not drawn) [Example 284, N^4-{4-[(2-chloro-4-fluorobenzoyl)amino]phenyl}-N^5-(pyrrolidin-2-ylmethyl)-1H-imidazole-4,5-dicarboxamide hydrochloride salt] | 0.01 µM
8 | O=C(Nc1ccc(NC(=O)c2[nH]cnc2C(=O)NCCN2CCCCC2)cc1F)c1ccc(F)cc1Cl [Example 74, N^5-{4-[(2-chloro-4-fluorobenzoyl)amino]-3-fluorophenyl}-N^4-[2-(piperidin-1-yl)ethyl]-1H-imidazole-4,5-dicarboxamide] | < 0.0005 µM
9 | O=C(Nc1ccc(NC(=O)c2ocnc2C(=O)NCCN2CC[C@@H](F)C2)cc1)c1ccc(F)cc1Cl [Example 222, N^5-{4-[(2-chloro-4-fluorobenzoyl)amino]phenyl}-N^4-{2-[(3R)-3-fluoropyrrolidin-1-yl]ethyl}-1,3-oxazole-4,5-dicarboxamide] | 0.19 µM
10 | CNC(=O)c1nc[nH]c1C(=O)Nc1ccc(NC(=O)c2ccccc2Br)cc1 [Example 37, N^5-{4-[(2-bromobenzoyl)amino]phenyl}-N^4-methyl-1H-imidazole-4,5-dicarboxamide] | 0.26 µM
11 | CC(CN1CCOCC1)NC(=O)c1[nH]cnc1C(=O)Nc1ccc(NC(=O)c2ccc(F)cc2)cc1 (single isomer, unassigned; enantiomer 2) [Example 296, N^4-{4-[(4-fluorobenzoyl)amino]phenyl}-N^5-[1-(morpholin-4-yl)propan-2-yl]-1H-imidazole-4,5-dicarboxamide (enantiomer 2)] | > 0.5 µM
12 | CN(C)CCNC(=O)c1ncoc1C(=O)Nc1ccc(NC(=O)c2ccc(F)cc2Cl)cc1 [Example 31, N^5-{4-[(2-chloro-4-fluorobenzoyl)amino]phenyl}-N^4-[2-(dimethylamino)ethyl]-1,3-oxazole-4,5-dicarboxamide] | 0.13 µM
13 | O=C(Nc1ccc(NC(=O)c2nc[nH]c2C(=O)NCCN2CC[C@H](F)C2)cc1)c1ccc(F)cc1Cl [Example 232, N^4-{4-[(2-chloro-4-fluorobenzoyl)amino]phenyl}-N^5-{2-[(3S)-3-fluoropyrrolidin-1-yl]ethyl}-1H-imidazole-4,5-dicarboxamide] | 0.04 µM
14 | O=C(Nc1ccc(NC(=O)c2nc[nH]c2C(=O)NCCN2CCCC(F)(F)C2)cc1)c1ccc(F)cc1Cl [Example 225, N^4-{4-[(2-chloro-4-fluorobenzoyl)amino]phenyl}-N^5-[2-(3,3-difluoropiperidin-1-yl)ethyl]-1H-imidazole-4,5-dicarboxamide] | 0.05 µM
15 | CC(C)(N)CNC(=O)c1[nH]cnc1C(=O)Nc1ccc(NC(=O)c2ccc(F)cc2Cl)cc1 [Example 280, N^5-(2-amino-2-methylpropyl)-N^4-{4-[(2-chloro-4-fluorobenzoyl)amino]phenyl}-1H-imidazole-4,5-dicarboxamide] | 0.03 µM
16 | O=C(Nc1ccc(NC(=O)c2nc[nH]c2C(=O)NC2CCOCC2)cc1)c1ccc(F)cc1Cl [Example 234, N^4-{4-[(2-chloro-4-fluorobenzoyl)amino]phenyl}-N^5-(tetrahydro-2H-pyran-4-yl)-1H-imidazole-4,5-dicarboxamide] | 0.02 µM
17 | NC(=O)c1nc[nH]c1C(=O)Nc1ccc(NC(=O)c2ccccc2Cl)cc1 [Example 120, N^5-{4-[(2-chlorobenzoyl)amino]phenyl}-1H-imidazole-4,5-dicarboxamide] | 0.14 µM
18 | CCNC(=O)c1[nH]cnc1C(=O)Nc1ccc(NC(=O)c2ccc(F)cc2Cl)cc1 [Example 138, N^4-{4-[(2-chloro-4-fluorobenzoyl)amino]phenyl}-N^5-ethyl-1H-imidazole-4,5-dicarboxamide] | 0.15 µM
19 | CNC(=O)c1nc[nH]c1C(=O)Nc1ccc(NC(=O)c2cccc(C)c2Cl)cc1 [Example 346, N^5-{4-[(2-chloro-3-methylbenzoyl)amino]phenyl}-N^4-methyl-1H-imidazole-4,5-dicarboxamide] | > 0.5 µM
20 | CCN1CCC[C@H]1CNC(=O)c1nc[nH]c1C(=O)Nc1ccc(NC(=O)c2ccc(F)cc2Cl)cc1 [Example 404, N^5-{4-[(2-chloro-4-fluorobenzoyl)amino]phenyl}-N^4-{[(2S)-1-ethylpyrrolidin-2-yl]methyl}-1H-imidazole-4,5-dicarboxamide] | 0.0007 µM
21 | O=C(Nc1ccc(NC(=O)c2[nH]cnc2C(=O)NCCN2CCCCC2)cc1F)c1ccccc1Cl [Example 82, N^5-{4-[(2-chlorobenzoyl)amino]-3-fluorophenyl}-N^4-[2-(piperidin-1-yl)ethyl]-1H-imidazole-4,5-dicarboxamide] | < 0.0005 µM
22 | CNC(=O)c1nc[nH]c1C(=O)Nc1ccc(NC(=O)c2ccc(F)cc2Cl)c(OC)c1 [Example 95, N^5-{4-[(2-chloro-4-fluorobenzoyl)amino]-3-methoxyphenyl}-N^4-methyl-1H-imidazole-4,5-dicarboxamide] | 0.06 µM
23 | O=C(Nc1ccc(NC(=O)c2ocnc2C(=O)NCCN2CC[C@H](F)C2)cc1)c1ccc(F)cc1Cl [Example 221, N^5-{4-[(2-chloro-4-fluorobenzoyl)amino]phenyl}-N^4-{2-[(3S)-3-fluoropyrrolidin-1-yl]ethyl}-1,3-oxazole-4,5-dicarboxamide] | 0.49 µM
24 | CCc1nc(C(=O)Nc2ccc(NC(=O)c3ccc(F)cc3Cl)cc2)c(C(=O)NCCN2CCCCC2)[nH]1 [Example 70, N^4-{4-[(2-chloro-4-fluorobenzoyl)amino]phenyl}-2-ethyl-N^5-[2-(piperidin-1-yl)ethyl]-1H-imidazole-4,5-dicarboxamide] | 0.02 µM
25 | O=C(Nc1ccc(NC(=O)c2[nH]cnc2C(=O)NC2CC2)cc1)c1ccc(F)cc1Cl [Example 45, N^5-{4-[(2-chloro-4-fluorobenzoyl)amino]phenyl}-N^4-cyclopropyl-1H-imidazole-4,5-dicarboxamide] | 0.04 µM
26 | CC(C)(O)CNC(=O)c1[nH]cnc1C(=O)Nc1ccc(NC(=O)c2ccc(F)cc2Cl)cc1 [Example 223, N^4-{4-[(2-chloro-4-fluorobenzoyl)amino]phenyl}-N^5-(2-hydroxy-2-methylpropyl)-1H-imidazole-4,5-dicarboxamide] | 0.34 µM
27 | CCN1CCCC1CNC(=O)c1nc[nH]c1C(=O)Nc1ccc(NC(=O)c2ccc(F)cc2Cl)cc1 (stereo not drawn) [Example 390, N^5-{4-[(2-chloro-4-fluorobenzoyl)amino]phenyl}-N^4-[(1-ethylpyrrolidin-2-yl)methyl]-1H-imidazole-4,5-dicarboxamide] | 0.003 µM
